Among the data in PubChem BioAssay (NCI) are TGI and GI50 values, retold here.

Some test systems named below: SK-OV-3 ovarian; SK-MEL-2 melanoma; T-47D breast; SF-539 CNS; SK-MEL-28 melanoma; K-562 leukemia; OVCAR-3 ovarian; HCC-2998 colon; SF-295 CNS; OVCAR-4 ovarian.
Common to all, as to test: growth of human tumour cells (NCI), 48 h

The structures appear in SMILES notation.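 Results reflect a 48-hour exposure of cells in 96-well plates to compound at five concentrations. At the GI50, growth is halved. The concentration for full growth arrest is given as TGI.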

Consider `CCOC(=O)c1c[nH]c2oc(/C=N/N3CC(CN4CCOCC4)OC3=O)cc2c1=O` (stereo not given), for which the TGI in the test on SK-OV-3 ovarian, in the test on SK-MEL-2 melanoma, in the test with T-47D breast, in the test on SF-539 CNS, with SK-MEL-28 melanoma and in the test with K-562 leukemia was above 100 µM in each case. Moreover, the TGI with OVCAR-3 ovarian, in the test on HCC-2998 colon, in the test on SF-295 CNS and in the test with OVCAR-4 ovarian was above 100 µM in each case.
For the compound `O=[N+]([O-])c1ccc2c(c1)C(c1ccccc1Cl)=Nc1cn[nH]c1N2`, the GI50 is 12.5 µM in the test on SK-OV-3 ovarian; 10.7 µM with SK-MEL-2 melanoma; 14 µM in the test on T-47D breast; 14.6 µM with SF-539 CNS; above 23.7 µM in the test on SK-MEL-28 melanoma; 19 µM in the test with K-562 leukemia. Besides, the GI50 with OVCAR-3 ovarian was 14.1 µM; with HCC-2998 colon it was 24.7 µM; in the test on SF-295 CNS, 8.48 µM; in the test with OVCAR-4 ovarian, 12.5 µM. In addition, the TGI was above 25 µM in the test on SK-OV-3 ovarian; above 22 µM with SK-MEL-2 melanoma; above 25 µM in the test with T-47D breast; above 25 µM in the test with SF-539 CNS; above 25 µM with SK-MEL-28 melanoma; above 25 µM in the test with K-562 leukemia. Besides, the TGI in the test with OVCAR-3 ovarian is above 25 µM; in the test with HCC-2998 colon it was above 25 µM; in the test on SF-295 CNS, above 23.8 µM; in the test on OVCAR-4 ovarian, above 25 µM.
Take `Cn1cc(C2=C(c3cn(CCCCCN)c4ccccc34)C(=O)NC2=O)c2ccccc21`: the GI50 in the test on SK-OV-3 ovarian is 10.9 µM; in the test with SK-MEL-2 melanoma, 7.1 µM; in the test with T-47D breast, 6.23 µM; in the test with SF-539 CNS it was 6.42 µM; in the test with SK-MEL-28 melanoma, 12.7 µM; in the test on K-562 leukemia, 9.14 µM. Moreover, the GI50 in the test with OVCAR-3 ovarian was 7.8 µM; with HCC-2998 colon, above 25 µM; with SF-295 CNS, 9.37 µM; with OVCAR-4 ovarian it was 12.7 µM. Further, the TGI was above 25 µM with SK-OV-3 ovarian; 18.2 µM in the test with SK-MEL-2 melanoma; 21.6 µM with T-47D breast; 21.6 µM in the test with SF-539 CNS; above 25 µM with SK-MEL-28 melanoma; above 25 µM in the test on K-562 leukemia. In addition, the TGI in the test with OVCAR-3 ovarian was above 23.2 µM; with HCC-2998 colon it was above 25 µM; in the test on SF-295 CNS, above 20.1 µM; in the test with OVCAR-4 ovarian, above 25 µM.
